Assay results taken from US20240189449A1, “LIPID NANOPARTICLES AND POLYNUCLEOTIDES ENCODING ORNITHINE TRANSCARBAMYLASE FOR THE TREATMENT OF ORNITHINE TRANSCARBAMYLASE DEFICIENCY” (ModernaTX, Inc., priority 2021, published 2024).

How the values were obtained:
CD-1 mice [1] = assay: hEPO expression in serum after IV lipid nanoparticles with hEPO mRNA, CD-1 mice; format: in vivo; details: LNP with DSPC, cholesterol, Compound I; for Mean 6 hr hEPO Concentration: serum 6 hours after injection
Procedure: To assess potency of expression and metabolic stability of lipids of the disclosure, hepatocyte protein expression (hEPO) was measured following administration to mice of a nanoparticle of the disclosure.
(§1) Lipid nanoparticles including DSPC as a phospholipid, cholesterol as a structural lipid, Compound I as a PEG lipid, an ionizable amino lipid of Formula (II), and an mRNA encoding hEPO were intravenously administered to CD-1 mice. The concentration of hEPO in serum was tested at 6 hours after injection.

Sprague Dawley rats [2] = assay: Tolerability in rats: reporter antibody construct expression (ELISA) and liver toxicity; format: in vivo; details: IV
Procedure: To assess tolerability of the lipids of the disclosure, expression of a reporter antibody construct induced by sample formulations was assessed in rats.
Lipid nanoparticles including DSPC as a phospholipid, cholesterol as a structural lipid, Compound I as a PEG lipid, an ionizable amino lipid of Formula (II), and an mRNA encoding a reporter antibody construct were intravenously administered to Sprague Dawley rats. […] For the formulations tested, high levels of the reporter antibody were measured with minimal signs of liver toxicity (Table 15).

Sprague Dawley rats [3] = assay: NPI-Luciferase expression, ex vivo liver bioluminescence, Sprague Dawley rats; format: in vivo; details: rat, IV
Procedure: (§2) To further assess potency of expression and metabolic stability of lipids of the disclosure, expression of luciferase was measured following administration to rodents of a nanoparticle of the disclosure comprising an mRNA containing luciferase.
as §1, with “luciferase” for “hEPO”, “mice and Sprague Dawley rats.” for “mice.”, “level” for “concentration”, “expression” for “hEPO in serum”, “tested via bioluminescence in the liver ex vivo” for “tested”

Sprague Dawley rats [4] = assay: Parent lipid remaining in liver tissue at 24 h, rats; format: in vivo; details: rat
cynomolgus monkeys = assay: Luciferase level in livers ex vivo (ELISA), cynomolgus monkeys; details: IV
Procedure: To the assess potency of expression and metabolic stability of lipids of the disclosure in different species, the expression of an mRNA was measured following administration to non-human primates of a nanoparticle of the disclosure containing the mRNA.
as §1, with “luciferase” for “hEPO”, “cynomolgus monkeys.” for “CD-1 mice.”, “level” for “concentration”, “livers ex vivo” for “serum”, “measured via ELISA” for “tested”

CD-1 mice [5] = assay: NPI-Luciferase expression, ex vivo liver bioluminescence, CD-1 mice; format: in vivo; details: mouse, IV
Procedure: as §2
as §1, with “luciferase” for “hEPO”, “mice and Sprague Dawley rats.” for “mice.”, “level” for “concentration”, “expression” for “hEPO in serum”, “tested via bioluminescence in the liver ex vivo” for “tested”

CD-1 mice [6] = assay: Parent lipid remaining in liver at 24 h, CD-1 mice (hEPO mRNA LNPs); format: in vivo; details: for Approx. Percent Total Dose of Parent Lipid Remaining at 24 h: calculation assumes a 25 g mouse with a 1.5 g liver
Sprague Dawley rats [7] = assay: hEPO expression in serum after IV lipid nanoparticles with hEPO mRNA, Sprague Dawley rats; format: in vivo; details: serum 6 hours after injection
Procedure: To further assess potency of expression and metabolic stability of lipids of the disclosure, hepatocyte protein expression (hEPO) was measured following administration to rats of a nanoparticle of the disclosure.
as §1, with “Sprague Dawley rats.” for “CD-1 mice.”

| SMILES | hEPO AUC (CD-1 mice [1]) | Mean 6 hr hEPO Concentration (CD-1 mice [1]) [mIU/mL] | Mean Reporter Antibody Construct Concentration (Sprague Dawley rats [2]) [ng/mL] | Mean 6 h ex vivo Liver NPI-Luciferase Total Flux (Sprague Dawley rats [3]) [photons/second] | Approx. Percent Total Dose of Parent Lipid Remaining at 24 h (Sprague Dawley rats [4]) | Mean 6 h NPI-Luciferase Concentration (cynomolgus monkeys) [ng/g] | Mean 6 h ex vivo Liver NPI-Luciferase Total Flux (CD-1 mice [5]) [photons/second] | Parent Lipid Remaining (nmol/g liver tissue) at 24 h (CD-1 mice [6]) [nmol/g liver tissue] | Approx. Percent Total Dose of Parent Lipid Remaining at 24 h (CD-1 mice [6]) [%] | Mean 6 hr hEPO Concentration (Sprague Dawley rats [7]) [mIU/mL] |
| --- | --- | --- | --- | --- | --- | --- | --- | --- | --- | --- |
| CCCCCCCCC(CCCCCCCC)OC(=O)CCCCCCCN(CCO)CCCCCCCC(=O)OCCC(CCCC)CCCC [Compound 22, 3-Butylheptyl 8-((8-(heptadecan-9-yloxy)-8-oxooctyl)(2-hydroxyethyl)amino)octanoate] | 2.03E+07 | 1264530 | 1113642 | 2227666667 | <0.1%^ | 1322 | 300960000 | <0.1 | <0.1 |  |
| CCCCCCCCC(CCCCCCCC)OC(=O)CCCCCCCN(CCCCCCCC(=O)OCCC(CCCC)CCCC)CCCNc1c(NC)c(=O)c1=O [Compound 27, 3-Butylheptyl 8-((8-(heptadecan-9-yloxy)-8-oxooctyl)(3-((2-(methylamino)-3,4-dioxocyclobut-1-en-1-yl)amino)propyl)amino)octanoate] | 2.10E+07 | 1316011 | 833698 | 1215666667 | 28% | 878 | 357720000 | 27 ± 4 | 28 | 664431 |
